The results in this text go back to patent US9492471B2, “Methods of treating a disease or disorder associated with Bruton'S Tyrosine Kinase” (Celgene Avilomics Research, Inc., priority 2013, dated 2016).

What all share (experiment): HotSpot kinase profiling
Common to all, as to format: biochemical

Assay [1] has as its target T1, ARAF (Homo sapiens, UniProt P10398).
T1 construct: purchased Reaction Biology Corp
T1 sequence (P10398 1-606): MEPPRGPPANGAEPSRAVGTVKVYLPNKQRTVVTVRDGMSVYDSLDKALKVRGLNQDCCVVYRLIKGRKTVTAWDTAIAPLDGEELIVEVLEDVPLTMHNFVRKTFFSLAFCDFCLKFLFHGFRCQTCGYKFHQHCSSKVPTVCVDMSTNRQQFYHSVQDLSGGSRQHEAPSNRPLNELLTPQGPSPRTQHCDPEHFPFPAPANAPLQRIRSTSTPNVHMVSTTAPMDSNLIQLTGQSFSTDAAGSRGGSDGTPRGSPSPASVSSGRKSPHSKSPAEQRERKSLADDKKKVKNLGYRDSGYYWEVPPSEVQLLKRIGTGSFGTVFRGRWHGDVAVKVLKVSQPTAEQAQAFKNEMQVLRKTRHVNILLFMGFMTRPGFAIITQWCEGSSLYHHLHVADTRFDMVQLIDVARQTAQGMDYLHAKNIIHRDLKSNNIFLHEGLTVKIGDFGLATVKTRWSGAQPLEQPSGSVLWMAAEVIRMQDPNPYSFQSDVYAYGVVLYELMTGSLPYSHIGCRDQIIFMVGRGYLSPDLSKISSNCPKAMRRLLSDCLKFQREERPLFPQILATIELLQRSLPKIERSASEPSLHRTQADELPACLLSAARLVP
In short, it runs like this: (§1)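 Radiometric kinase assay with P81 filter capture; each kinase was added to fresh substrate plus cofactors in reaction buffer and incubated 2 h at room temperature. Unreacted phosphate was washed off with 0.1% phosphoric acid before detection; percent inhibition is relative to DMSO control, averaged over replicates.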

The target in assay [2] is T2, IGF1R (Homo sapiens, UniProt P08069).
T2 construct: purchased Reaction Biology Corp
T2 sequence (P08069 31-1367): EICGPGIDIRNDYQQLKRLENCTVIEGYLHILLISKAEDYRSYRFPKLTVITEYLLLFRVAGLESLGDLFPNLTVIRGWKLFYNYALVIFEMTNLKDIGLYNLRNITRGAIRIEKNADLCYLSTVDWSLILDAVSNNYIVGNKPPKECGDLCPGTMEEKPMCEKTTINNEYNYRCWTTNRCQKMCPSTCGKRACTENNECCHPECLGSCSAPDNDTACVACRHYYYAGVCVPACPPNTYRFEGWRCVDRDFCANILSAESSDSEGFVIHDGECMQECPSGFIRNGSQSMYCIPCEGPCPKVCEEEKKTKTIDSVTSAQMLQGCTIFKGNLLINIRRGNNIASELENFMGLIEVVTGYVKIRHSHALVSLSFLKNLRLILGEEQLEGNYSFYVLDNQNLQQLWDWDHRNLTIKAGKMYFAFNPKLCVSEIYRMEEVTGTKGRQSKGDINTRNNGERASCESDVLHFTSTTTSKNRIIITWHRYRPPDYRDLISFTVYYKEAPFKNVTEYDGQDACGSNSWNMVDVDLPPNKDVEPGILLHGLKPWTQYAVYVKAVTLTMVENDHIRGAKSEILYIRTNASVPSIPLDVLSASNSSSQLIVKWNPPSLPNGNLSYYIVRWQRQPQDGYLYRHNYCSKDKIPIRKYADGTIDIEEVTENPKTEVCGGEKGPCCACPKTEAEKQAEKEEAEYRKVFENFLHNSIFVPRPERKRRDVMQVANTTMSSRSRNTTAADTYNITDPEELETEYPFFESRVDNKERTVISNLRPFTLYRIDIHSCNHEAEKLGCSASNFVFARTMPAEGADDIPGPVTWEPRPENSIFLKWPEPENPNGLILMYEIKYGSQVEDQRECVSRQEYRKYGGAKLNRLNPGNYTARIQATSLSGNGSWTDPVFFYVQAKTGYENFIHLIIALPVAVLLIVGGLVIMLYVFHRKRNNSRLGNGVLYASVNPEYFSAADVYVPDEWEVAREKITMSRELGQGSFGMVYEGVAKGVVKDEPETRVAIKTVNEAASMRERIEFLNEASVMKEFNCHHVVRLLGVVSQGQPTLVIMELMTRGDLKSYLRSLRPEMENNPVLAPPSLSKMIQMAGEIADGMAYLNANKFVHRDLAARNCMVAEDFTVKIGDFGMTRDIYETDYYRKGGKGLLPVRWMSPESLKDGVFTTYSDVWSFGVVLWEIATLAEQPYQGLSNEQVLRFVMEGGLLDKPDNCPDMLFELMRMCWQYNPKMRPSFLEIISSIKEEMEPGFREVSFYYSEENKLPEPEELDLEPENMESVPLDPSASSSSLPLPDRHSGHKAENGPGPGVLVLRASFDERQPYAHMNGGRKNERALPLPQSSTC
The gist of the method:
as §1

Assay [3] deals with T3, JNK1 (Homo sapiens, UniProt P45983).
T3 construct: purchased Reaction Biology Corp
T3 sequence (P45983 whole entry): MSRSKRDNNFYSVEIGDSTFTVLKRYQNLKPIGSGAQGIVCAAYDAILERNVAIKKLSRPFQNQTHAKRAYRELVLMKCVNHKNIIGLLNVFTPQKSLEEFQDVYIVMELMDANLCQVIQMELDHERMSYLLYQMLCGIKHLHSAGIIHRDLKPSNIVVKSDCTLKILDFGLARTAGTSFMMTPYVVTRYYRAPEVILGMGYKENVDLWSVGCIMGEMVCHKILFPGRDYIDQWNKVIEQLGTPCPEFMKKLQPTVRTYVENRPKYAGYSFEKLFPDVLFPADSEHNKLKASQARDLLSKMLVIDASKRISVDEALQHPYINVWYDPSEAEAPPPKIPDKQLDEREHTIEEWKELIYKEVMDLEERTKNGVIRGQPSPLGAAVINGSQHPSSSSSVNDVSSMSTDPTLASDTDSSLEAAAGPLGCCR
The gist of the method:
as §1

Assay [4] deals with T4, PKCnu/PRKD3 (Homo sapiens, UniProt O94806).
T4 construct: purchased Reaction Biology Corp
T4 sequence (O94806 1-890): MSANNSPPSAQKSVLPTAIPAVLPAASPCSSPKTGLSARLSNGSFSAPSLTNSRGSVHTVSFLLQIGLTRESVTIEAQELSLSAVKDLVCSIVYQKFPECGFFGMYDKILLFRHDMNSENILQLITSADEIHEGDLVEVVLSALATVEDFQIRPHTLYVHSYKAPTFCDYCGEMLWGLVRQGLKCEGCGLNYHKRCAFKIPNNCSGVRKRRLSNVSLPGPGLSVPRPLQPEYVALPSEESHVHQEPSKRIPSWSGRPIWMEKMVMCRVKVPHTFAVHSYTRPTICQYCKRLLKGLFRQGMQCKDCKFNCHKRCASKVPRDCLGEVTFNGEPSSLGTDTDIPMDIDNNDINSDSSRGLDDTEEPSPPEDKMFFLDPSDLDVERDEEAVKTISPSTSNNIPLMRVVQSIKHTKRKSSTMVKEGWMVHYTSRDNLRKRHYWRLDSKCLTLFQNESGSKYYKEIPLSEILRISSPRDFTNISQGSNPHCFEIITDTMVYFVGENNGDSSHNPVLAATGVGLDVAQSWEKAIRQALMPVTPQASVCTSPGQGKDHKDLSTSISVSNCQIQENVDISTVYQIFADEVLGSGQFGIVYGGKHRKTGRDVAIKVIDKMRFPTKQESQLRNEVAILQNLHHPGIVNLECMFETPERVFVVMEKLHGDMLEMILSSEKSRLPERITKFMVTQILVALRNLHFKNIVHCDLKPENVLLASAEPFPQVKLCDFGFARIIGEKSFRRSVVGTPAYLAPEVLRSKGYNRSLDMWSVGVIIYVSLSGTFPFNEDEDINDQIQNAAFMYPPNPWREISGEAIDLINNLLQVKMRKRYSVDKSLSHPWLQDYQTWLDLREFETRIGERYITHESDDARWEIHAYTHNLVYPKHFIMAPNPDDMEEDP
In short, it runs like this: as §1

Assay [5] addresses T5, PKCtheta (Homo sapiens, UniProt Q04759).
T5 construct: purchased Reaction Biology Corp
In short, it runs like this:
as §1

Assay [6] addresses T6, ROCK1 (Homo sapiens, UniProt Q13464).
T6 construct: purchased Reaction Biology Corp
The gist of the method:
as §1

Where [7] appears, read: read-out: % Enzyme Activity (relative to DMSO controls) Run 1.
[8] abbreviates: read-out: % Enzyme Activity (relative to DMSO controls) Run 2.

Where two headings read alike, the source gives them in different places.

T6 sequence (Q13464 whole entry): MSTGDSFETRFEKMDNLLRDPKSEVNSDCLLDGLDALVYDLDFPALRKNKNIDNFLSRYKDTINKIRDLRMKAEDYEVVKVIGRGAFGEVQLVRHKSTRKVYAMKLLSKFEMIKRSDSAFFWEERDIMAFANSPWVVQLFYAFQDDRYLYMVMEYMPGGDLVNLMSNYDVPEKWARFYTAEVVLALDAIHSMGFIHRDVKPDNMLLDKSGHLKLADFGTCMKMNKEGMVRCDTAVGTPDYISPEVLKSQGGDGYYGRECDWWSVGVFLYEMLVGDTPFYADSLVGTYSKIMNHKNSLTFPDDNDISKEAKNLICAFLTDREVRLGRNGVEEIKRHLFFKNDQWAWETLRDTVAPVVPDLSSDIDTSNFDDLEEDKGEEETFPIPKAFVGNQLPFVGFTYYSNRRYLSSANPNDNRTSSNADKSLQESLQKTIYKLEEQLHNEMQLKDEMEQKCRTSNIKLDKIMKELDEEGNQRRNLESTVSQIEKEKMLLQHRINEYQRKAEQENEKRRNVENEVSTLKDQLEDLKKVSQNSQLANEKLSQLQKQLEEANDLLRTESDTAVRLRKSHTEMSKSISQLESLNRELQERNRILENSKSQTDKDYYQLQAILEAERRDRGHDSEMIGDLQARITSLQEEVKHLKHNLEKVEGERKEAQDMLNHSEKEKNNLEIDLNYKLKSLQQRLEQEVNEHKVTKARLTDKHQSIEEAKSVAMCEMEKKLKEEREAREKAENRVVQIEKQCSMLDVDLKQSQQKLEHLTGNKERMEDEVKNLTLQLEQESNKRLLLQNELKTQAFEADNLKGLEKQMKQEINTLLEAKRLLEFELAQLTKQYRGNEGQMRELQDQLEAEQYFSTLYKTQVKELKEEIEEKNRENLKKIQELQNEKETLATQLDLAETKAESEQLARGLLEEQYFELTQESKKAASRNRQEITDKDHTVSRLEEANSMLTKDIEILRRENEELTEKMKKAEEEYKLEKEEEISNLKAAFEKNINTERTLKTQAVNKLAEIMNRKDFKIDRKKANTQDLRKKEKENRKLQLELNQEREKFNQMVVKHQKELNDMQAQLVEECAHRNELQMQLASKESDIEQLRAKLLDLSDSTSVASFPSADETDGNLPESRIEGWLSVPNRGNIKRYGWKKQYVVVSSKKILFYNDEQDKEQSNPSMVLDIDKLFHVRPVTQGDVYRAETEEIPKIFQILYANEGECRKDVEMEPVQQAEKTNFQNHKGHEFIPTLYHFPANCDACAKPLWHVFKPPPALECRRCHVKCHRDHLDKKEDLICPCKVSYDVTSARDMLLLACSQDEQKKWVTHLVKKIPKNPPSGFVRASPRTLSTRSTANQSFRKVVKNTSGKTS
T5 sequence (Q04759 whole entry): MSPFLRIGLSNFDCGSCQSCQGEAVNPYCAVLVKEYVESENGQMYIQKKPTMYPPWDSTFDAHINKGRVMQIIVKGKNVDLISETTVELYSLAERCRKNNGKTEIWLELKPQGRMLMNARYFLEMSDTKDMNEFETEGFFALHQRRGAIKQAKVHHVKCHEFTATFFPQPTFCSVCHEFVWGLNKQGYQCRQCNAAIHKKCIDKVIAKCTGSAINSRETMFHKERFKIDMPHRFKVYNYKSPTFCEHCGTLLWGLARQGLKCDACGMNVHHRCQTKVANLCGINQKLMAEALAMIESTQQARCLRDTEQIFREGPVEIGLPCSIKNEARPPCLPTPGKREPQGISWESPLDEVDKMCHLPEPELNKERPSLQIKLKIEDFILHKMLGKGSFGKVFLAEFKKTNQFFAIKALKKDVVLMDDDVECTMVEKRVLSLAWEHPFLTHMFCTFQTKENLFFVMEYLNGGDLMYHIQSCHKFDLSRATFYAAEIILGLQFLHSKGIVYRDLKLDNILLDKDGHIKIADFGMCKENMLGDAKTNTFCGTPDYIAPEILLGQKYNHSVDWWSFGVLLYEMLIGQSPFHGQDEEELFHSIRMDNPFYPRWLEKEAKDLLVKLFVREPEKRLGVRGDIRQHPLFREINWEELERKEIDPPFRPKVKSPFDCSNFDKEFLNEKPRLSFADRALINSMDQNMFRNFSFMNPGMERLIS

Regarding `C=CC(=O)Nc1cccc(Nc2nc(Nc3ccc(OCCOC)c(F)c3)ncc2F)c1` [Compound 2], the inhibition at 3 µM in assay [1] was -1.47%; in assay [2], 15.6%; in assay [3], 12.1%; in assay [4], 20.1%; in assay [5], 16.1%; in assay [6] it was -6.39%. For the same compound, the remaining activity at 3 µM in assay [1] (setting [7]) turned out to be 103%; in assay [1] (setting [8]) it was 100%; in assay [2] (setting [7]), 82.8%; in assay [2] (setting [8]), 86%; in assay [3] (setting [7]), 88.1%; in assay [3] (setting [8]), 87.7%. In addition, the remaining activity at 3 µM worked out at 80.1% in assay [4] (setting [7]); 79.8% in assay [4] (setting [8]); 83.7% in assay [5] (setting [7]); 84.1% in assay [5] (setting [8]); 108% in assay [6] (setting [7]); 105% in assay [6] (setting [8]).

As usually defined, the inhibition is the relative decrease from the control value, in per cent.
